How the values were obtained:
Assay in all cases: relative viability (nuclei count vs DMSO), 5 days (fraction); higher = more cells survive
PAC-1 = compound: C=CCc1cccc(/C=N/NC(=O)CN2CCN(Cc3ccccc3)CC2)c1O [PAC-1]
Procedure, shortened: (§1)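 Lung cancer cell lines in 1536-well plates were kept overnight at 37 °C, then pinned with five library-drug doses (not always all listed) spaced by √10 on vehicle-anchored plates. After 5 days without medium change, cells were fixed, permeabilised and Hoechst-stained in one step, imaged at 4×, and nuclei were counted with MetaXpress. Viability is treated-well nuclei divided by vehicle-well nuclei, taken as the median over plates. Plates passed only with control CV below 25% and at least one doubling.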

BMX-IN-1 = compound: C=CC(=O)Nc1cc(-n2c(=O)ccc3cnc4ccc(-c5ccc(NS(C)(=O)=O)cc5)cc4c32)ccc1C [BMX-IN-1]
Procedure, shortened: as §1

Ibrutinib = compound: C=CC(=O)N1CCC[C@@H](n2nc(-c3ccc(Oc4ccccc4)cc3)c3c(N)ncnc32)C1 [Ibrutinib]
Procedure, shortened: as §1

BMX-IN-1 + Dasatinib = compound: C=CC(=O)Nc1cc(-n2c(=O)ccc3cnc4ccc(-c5ccc(NS(C)(=O)=O)cc5)cc4c32)ccc1C [BMX-IN-1] + Cc1nc(Nc2ncc(C(=O)Nc3c(C)cccc3Cl)s2)cc(N2CCN(CCO)CC2)n1 [Dasatinib] (partner 0.075 µM)
Procedure, shortened: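 Each reported value is a median over duplicate plates. It expresses relative viability: treated-well nuclei count divided by vehicle-well nuclei count. Lung cancer cell lines in 1536-well plates were dosed by pin tool a day after seeding, alone with one drug or with a fixed anchor-drug dose plus five library-drug doses (not always all listed) in √10 steps, and nuclei were counted after 5 days.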

| Cell Line | relative viability (PAC-1; 0.02 µM) | relative viability (PAC-1; 0.06325 µM) | relative viability (PAC-1; 0.2 µM) | relative viability (PAC-1; 2 µM) | relative viability (BMX-IN-1; 0.02 µM) | relative viability (BMX-IN-1; 0.2 µM) | relative viability (BMX-IN-1; 0.6325 µM) | relative viability (BMX-IN-1; 2 µM) | relative viability (Ibrutinib; 0.005 µM) | relative viability (Ibrutinib; 0.01581 µM) | relative viability (Ibrutinib; 0.05 µM) | relative viability (Ibrutinib; 0.1581 µM) | relative viability (Ibrutinib; 0.5 µM) | relative viability (BMX-IN-1 + Dasatinib; first compound 0.02 µM) | relative viability (BMX-IN-1 + Dasatinib; first compound 0.2 µM) | relative viability (BMX-IN-1 + Dasatinib; first compound 0.6325 µM) | relative viability (BMX-IN-1 + Dasatinib; first compound 2 µM) |
| --- | --- | --- | --- | --- | --- | --- | --- | --- | --- | --- | --- | --- | --- | --- | --- | --- | --- |
| NCI-H596 | 1 | 0.937 | 1.07 | 1.05 | 1.12 | 0.951 | 1.02 | 0.96 | 0.74 | 0.965 | 0.939 | 0.837 | 0.858 | 0.66 | 0.618 | 0.674 | 0.672 |
| NCI-H647 | 0.985 | 0.995 | 0.892 | 0.933 | 1.32 | 1.07 | 0.957 | 0.96 | 0.724 | 0.855 | 0.86 | 0.876 | 0.879 | 0.197 | 0.24 | 0.277 | 0.174 |
| NCI-H650 | 0.976 | 0.966 | 0.891 | 0.872 | 0.905 | 1.01 | 1.02 | 0.951 | 0.772 | 0.991 | 0.802 | 1.05 | 1.01 | 0.49 | 0.469 | 0.517 | 0.478 |
| NCI-H661 | 0.977 | 0.981 | 0.965 | 0.959 | 0.967 | 1.03 | 1.01 | 0.933 | 0.95 | 0.957 | 0.868 | 0.96 | 0.601 | 0.993 | 0.852 | 1 | 0.946 |
| NCI-H727 | 0.968 | 1.15 | 0.944 | 0.916 | 1 | 1.14 | 0.964 | 0.94 | 0.857 | 0.912 | 0.902 | 0.61 | – | 0.438 | 0.339 | 0.479 | 0.444 |
| NCI-H838 | 0.96 | 0.989 | 0.9 | 0.983 | 1.25 | 0.957 | 1.02 | 0.989 | 0.923 | 0.893 | 0.986 | 0.938 | 0.948 | 0.28 | 0.323 | 0.347 | 0.282 |
| NCI-H1355 | 0.983 | 1.02 | 0.968 | 1.06 | 1.03 | 1.06 | 1.11 | 1.12 | – | 0.975 | 1.02 | 0.826 | 0.843 | 0.772 | 0.777 | 0.768 | 0.785 |
| NCI-H1395 | 1.02 | 0.928 | 0.872 | 0.911 | 1.01 | 0.951 | 0.97 | 0.892 | 0.763 | 1.04 | 0.855 | 0.713 | 0.957 | 0.408 | 0.579 | 0.462 | 0.391 |
| NCI-H1437 | 0.988 | 1.01 | 0.96 | 0.814 | 1.11 | 0.984 | 1.03 | 1.03 | 0.957 | 0.975 | 0.981 | 0.974 | 1.02 | 0.512 | 0.391 | 0.429 | 0.409 |
| NCI-H1563 | 0.953 | 1.03 | 1.04 | 0.94 | 0.955 | 0.943 | 1.04 | 0.964 | 0.922 | 0.893 | 1 | 0.977 | 0.861 | 0.441 | 0.463 | 0.423 | 0.428 |
| NCI-H1623 | 0.966 | 0.891 | 0.95 | 0.926 | 0.995 | 1.01 | 0.988 | 0.882 | 0.894 | 0.842 | 0.672 | 0.858 | 0.299 | 0.529 | 0.526 | 0.569 | 0.504 |
| NCI-H1650 | 0.916 | 0.916 | 0.856 | 0.81 | 1 | 0.896 | 1.01 | 0.772 | 0.793 | 0.841 | 0.76 | 0.79 | 0.706 | 0.299 | 0.307 | 0.423 | 0.294 |
| NCI-H1651 | 0.978 | 0.967 | 0.943 | 0.983 | 1.11 | 1.08 | 1.07 | 0.991 | 0.931 | 0.93 | 0.913 | 0.923 | 1.03 | 0.213 | 0.515 | 0.435 | 0.406 |
| NCI-H1666 | 1.01 | 1.01 | 1 | 1.04 | 1.05 | 1.06 | 1.11 | 1.1 | 1.03 | 0.984 | 0.851 | 0.965 | 0.867 | 0.905 | 0.839 | 0.94 | 0.845 |
| NCI-H1734 | 0.936 | 1.01 | 0.942 | 1.02 | 1.06 | 1.06 | 1.11 | 1.02 | 0.849 | 0.922 | 0.952 | 1.03 | 0.999 | 0.463 | 0.504 | 0.476 | 0.467 |
| NCI-H1755 | 1.02 | 0.958 | 0.963 | 0.995 | 1.01 | 1.1 | 1.08 | 0.984 | 0.988 | 1.03 | 1.02 | 0.994 | 0.969 | 0.389 | 0.452 | 0.438 | 0.48 |
| NCI-H1792 | 0.951 | 0.991 | 0.996 | 0.95 | 1.03 | 1.2 | 1.5 | 0.991 | – | 1.06 | 0.925 | 0.567 | 0.762 | – | 0.817 | 0.714 | 0.862 |
